Common to all, as to type: in vivo
In series [1] the test system is bird's eye speedwell (Veronica persica Poir.), Vp. As to the kind of experiment: Test Example 3: herbicidal effect on upland weeds before emergence. Particulars: dosage 5 kg/ha. An outline of the steps: (§1)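 Steps: sow upland weed seeds; spray liquid formulation of active ingredient at prescribed concentration prior to emergence; after 14 days, calculate weed-killing rate; judge herbicidal effect.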

Series [2] relates to cocklebur (Xanthium strumarium L.), Xs. Described as above. Particulars: dosage 5 kg/ha. Summed up: as §1
Series [3] has as its system velvetleaf (Abutilon theophtasti L.), At. Described as above. Particulars: dosage 5 kg/ha. Summed up:
as §1

Series [4] concerns cleavers (Galium aparine L.), Ga. The description is as above. As to conditions: dosage 5 kg/ha. An outline of the steps:
as §1

Series [5] concerns barnyard grass (Echinochloa crus-galli Beauv.), Ec. The description is as above. Particulars: dosage 5 kg/ha. An outline of the steps:
as §1

Series [6] deals with forxtail grass (Alopecurus aequalis var. amurensis Ohwi), Am. The series is described as above. Particulars: foxtail grass, dosage 5 kg/ha. Summed up:
as §1

Series [7] has as its system monochoria (Monochoria vaginalis Presl). As to the kind of experiment: Test Example 2: herbicidal effect on paddy field weeds after emergence. Particulars: Dosage 5 kg/ha; one-leaved stage; 21 days after treatment. Summed up: (§2)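 Weeds were sown in 1/10000 are pots of soil flooded to paddy conditions and grown to the one-leaf stage, then the soil was treated with a solution of compound at a predetermined dosage.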

For series [8], the system named is barnyard grass (Echinochloa crus-galli Beauv.). The series is described as above. Particulars: Dosage 5 kg/ha; one-leaved stage; 21 days after treatment. Summed up: as §2
The test system of series [9] is bulrush (Scirpus juncoides Roxb.). Described as above. As to conditions: Dosage 5 kg/ha; one-leaved stage; 21 days after treatment. Summed up: as §2
Another series has as its system wheat. As to the kind of experiment: Test Example 4: phytotoxicity to upland crop plants, treatment after emergence. As to conditions: dosage 5 kg/ha, sprayed after emergence, judged 14 days after treatment. Summed up: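 Scores of weed-killing rate, with crop phytotoxicity, come from inspection 14 days after plants in soil vats, grown to specified leaf stages, are sprayed with a formulation holding the compound at a prescribed concentration.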

For a further series, the system named is soybean plant. Described as above. Particulars: dosage 5 kg/ha, sprayed after emergence, judged 14 days after treatment. An outline of the steps:
(§3)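 Post-emergence foliar spray at a prescribed concentration, applied once the sown weeds and soybean reached defined leaf stages in soil vats; herbicidal effect and soybean injury scored after 14 days.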

The next series has as its system wheat (Wh). Nature of the series: Test Example 3: phytotoxicity to upland crop plants, treatment before emergence. As to conditions: dosage 5 kg/ha. An outline of the steps:
(§4)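 Crop injury to soybean and wheat was judged on a phytotoxicity scale 14 days after a pre-emergence spray of a liquid formulation at a prescribed concentration of compound.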

The subject of the next series is soybean plant (So). Described as above. Particulars: dosage 5 kg/ha. Summed up: as §4
The test system of series [10] is barnyard grass (Echinochloa crus-galli Beauv.). As to the kind of experiment: Test Example 1: herbicidal effect on paddy field weeds before emergence. Particulars: Dosage 5 kg/ha. Summed up:
(§5)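 Seeds of both weeds, still ungerminated, in soil pots held under paddy conditions received a set dose of test solution as soil treatment. After twenty-one days, control relative to untreated pots was calculated and rated on a scoring scale.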

Series [11] concerns bulrush (Scirpus juncoides Roxb.). Described as above. As to conditions: Dosage 5 kg/ha. Summed up:
as §5

Series [12] concerns bird's eye speedwell (Veronica persica Poir.), Vp. As to the kind of experiment: Test Example 4: herbicidal effect on upland weeds after emergence. Particulars: dosage 5 kg/ha; sprayed after emergence; judged 14 days after treatment. Summed up: as §3
The subject of series [13] is cocklebur (Xanthium strumarium L.), Xs. The description is as above. As to conditions: dosage 5 kg/ha; sprayed after emergence; judged 14 days after treatment. Summed up: as §3
In series [14] the test system is velvetleaf (Abutilon theophtasti L.), At. The series is described as above. As to conditions: dosage 5 kg/ha; sprayed after emergence; judged 14 days after treatment. Summed up:
as §3

Series [15] has as its system cleavers (Galium aparine L.), Ga. Described as above. As to conditions: dosage 5 kg/ha; sprayed after emergence; judged 14 days after treatment. Summed up:
as §3

In series [16] the test system is barnyard grass (Echinochloa crus-galli Beauv.), Ec. Described as above. As to conditions: dosage 5 kg/ha; sprayed after emergence; judged 14 days after treatment. Summed up: as §3
The test system of series [17] is forxtail grass (Alopecurus aequalis var. amurensis Ohwi), Am. The series is described as above. As to conditions: dosage 5 kg/ha; sprayed after emergence; judged 14 days after treatment. Summed up: as §3

Molecules are shown by their SMILES.

As for `CCNC(=O)c1nc2c(cnn2C)cc1C(=O)Nc1c(CC)ccc(Cl)c1CC` [compound 1087], the “Herbicidal effect Vp” value in series [1] and in series [12] was 5 (Weed-killing rate is 100%.) throughout. Besides, the “Herbicidal effect Xs” value in series [2] and in [13] was 5 (Weed-killing rate is 100%.) each time. The “Herbicidal effect At” value in [3] and in [14] was 5 (Weed-killing rate is 100%.) each time. For the same molecule, the “Herbicidal effect Ga” value in [4] and in [15] was 5 (Weed-killing rate is 100%.) throughout. Further, the “Herbicidal effect Ec” value in [5] and in series [16] was 5 (Weed-killing rate is 100%.) each time. Also, the “Herbicidal effect Am” value in [6] and in series [17] was 5 (Weed-killing rate is 100%.) each time. For the same molecule, in [7], the “Post-emergence treatment Monochoria (herbicidal effect)” value (from here on “Post-emergence treatment Monochoria”) is on record as 5 (Weed-killing rate is 100%.). In addition, the “Post-emergence treatment Barnyard grass (herbicidal effect)” value (shortened to “Post-emergence treatment Barnyard grass”) in series [8] is given as 5 (Weed-killing rate is 100%.). Besides, the “Post-emergence treatment Bulrush (herbicidal effect)” value (“Post-emergence treatment Bulrush” below) in [9] was 5 (Weed-killing rate is 100%.). The “Phytotoxicity Wh” value in the series with wheat and in the series on wheat (Wh) was 5 (Crop-killing rate is 100%.) throughout. Besides, the “Phytotoxicity So” value with soybean plant was 4 (Crop-killing rate is 90-99%.); in the series on soybean plant (So) it was 5 (Crop-killing rate is 100%.). For the same molecule, the “Pre-emergence treatment Barnyard grass (herbicidal effect)” value (shortened to “Pre-emergence treatment Barnyard grass”) in [10] is on record as 5 (Weed-killing rate is 100%.). Further, in series [11], the “Pre-emergence treatment Bulrush (herbicidal effect)” value (shortened to “Pre-emergence treatment Bulrush”) is listed as 5 (Weed-killing rate is 100%.).

Turning to `CCCNC(=O)c1nc2cc(OC)c(OC)cc2cc1C(=O)Nc1c(CC)ccc(Cl)c1CC` [compound 305], the “Herbicidal effect Vp” value in [1] and in [12] was 4 (Weed-killing rate is 90-99%.) in each case. For the same molecule, the results for the “Herbicidal effect Xs” value in [2] and in [13] were 3 (Weed-killing rate is 70-89%.) and 2 (Weed-killing rate is 40-69%.), respectively. The “Herbicidal effect At” value in series [3] and in [14] was 4 (Weed-killing rate is 90-99%.) throughout. The “Herbicidal effect Ga” value in [4] is recorded as 3 (Weed-killing rate is 70-89%.); in [15], 2 (Weed-killing rate is 40-69%.). The entries for the “Herbicidal effect Ec” value in series [5] and in [16] were 5 (Weed-killing rate is 100%.) and 4 (Weed-killing rate is 90-99%.), respectively. In addition, the “Herbicidal effect Am” value was 4 (Weed-killing rate is 90-99%.) in [6] and 3 (Weed-killing rate is 70-89%.) in series [17]. In addition, the “Post-emergence treatment Monochoria” value in series [7] is reported as 5 (Weed-killing rate is 100%.). For the same molecule, the “Post-emergence treatment Barnyard grass” value in series [8] is 4 (Weed-killing rate is 90-99%.). Further, in [9], the “Post-emergence treatment Bulrush” value is 3 (Weed-killing rate is 70-89%.). In addition, the “Phytotoxicity Wh” value in the series with wheat and in the series on wheat (Wh) was 2 (Crop-killing rate is 40-69%.) throughout. The “Phytotoxicity So” value in the series with soybean plant is 1 (Crop-killing rate is 1-39%.); in the series with soybean plant (So), 0 (Crop-killing rate is 0-20% (No Phytotoxicity).). The “Pre-emergence treatment Barnyard grass” value in series [10] is 5 (Weed-killing rate is 100%.). Moreover, the “Pre-emergence treatment Bulrush” value in series [11] is reported as 4 (Weed-killing rate is 90-99%.).

Turning to `CCCNC(=O)c1nc2ncccc2cc1C(=O)Nc1c(CC)ccc(Cl)c1CC` [compound 361], the “Herbicidal effect Vp” value in series [1] and in series [12] was 5 (Weed-killing rate is 100%.) throughout. Further, the “Herbicidal effect Xs” value in series [2] and in [13] was 5 (Weed-killing rate is 100%.) in each case. The “Herbicidal effect At” value in series [3] and in [14] was 5 (Weed-killing rate is 100%.) throughout. Further, the “Herbicidal effect Ga” value in series [4] and in series [15] was 5 (Weed-killing rate is 100%.) each time. Further, the “Herbicidal effect Ec” value in [5] and in series [16] was 5 (Weed-killing rate is 100%.) in each case. The “Herbicidal effect Am” value in series [6] and in series [17] was 5 (Weed-killing rate is 100%.) throughout. The “Post-emergence treatment Monochoria” value in [7] is on record as 5 (Weed-killing rate is 100%.). Further, in series [8], the “Post-emergence treatment Barnyard grass” value was 5 (Weed-killing rate is 100%.). In addition, the “Post-emergence treatment Bulrush” value in [9] was 5 (Weed-killing rate is 100%.). Also, the “Phytotoxicity Wh” value with wheat is recorded as 5 (Crop-killing rate is 100%.); in the series with wheat (Wh), 4 (Crop-killing rate is 90-99%.). Also, the “Phytotoxicity So” value in the series with soybean plant and in the series with soybean plant (So) was 4 (Crop-killing rate is 90-99%.) in each case. Also, the “Pre-emergence treatment Barnyard grass” value in [10] is given as 5 (Weed-killing rate is 100%.). Also, in series [11], the “Pre-emergence treatment Bulrush” value is 5 (Weed-killing rate is 100%.).

Take `CCCNC(=O)c1nc2onc(C)c2cc1C(=O)Nc1c(CC)ccc(Cl)c1CC` [compound 1064]: the “Herbicidal effect Vp” value in series [1] and in [12] was 5 (Weed-killing rate is 100%.) in each case. The “Herbicidal effect Xs” value in series [2] and in series [13] was 5 (Weed-killing rate is 100%.) in each case. In addition, the “Herbicidal effect At” value in [3] and in series [14] was 5 (Weed-killing rate is 100%.) in each case. For the same molecule, the “Herbicidal effect Ga” value in series [4] and in series [15] was 5 (Weed-killing rate is 100%.) in each case. Besides, the “Herbicidal effect Ec” value in [5] and in series [16] was 5 (Weed-killing rate is 100%.) in each case. The “Herbicidal effect Am” value in series [6] and in series [17] was 5 (Weed-killing rate is 100%.) in each case. The “Post-emergence treatment Monochoria” value in [7] is reported as 5 (Weed-killing rate is 100%.). Besides, in series [8], the “Post-emergence treatment Barnyard grass” value is reported as 5 (Weed-killing rate is 100%.). The “Post-emergence treatment Bulrush” value in [9] is 5 (Weed-killing rate is 100%.). Further, the “Phytotoxicity Wh” value in the series on wheat and with wheat (Wh) was 5 (Crop-killing rate is 100%.) each time. Also, the “Phytotoxicity So” value in the series with soybean plant and with soybean plant (So) was 4 (Crop-killing rate is 90-99%.) in each case. Further, in series [10], the “Pre-emergence treatment Barnyard grass” value is listed as 5 (Weed-killing rate is 100%.). The “Pre-emergence treatment Bulrush” value in series [11] is listed as 5 (Weed-killing rate is 100%.).

These data come from US6444617B1, “Fused-heterocycle dicarboxylic acid diamide derivatives or salts thereof, herbicide and usage thereof” (Nihon Nohyaku Co., Ltd., priority 1998, dated 2002).
